Tested on: liver
Assay: DMN-induced liver fibrosis, H & E and Masson's trichrome staining
Assay type: in vivo, mouse
Experimental: Please refer to FIG. 6, which is a view showing liver fibrosis of mice dyed through H & E and Masson methods. As shown in the figures, dimethylnitrosamine (DMN) is used to induce liver fibrosis. 12 mice are randomly divided into two groups each having 6 mice. One is an experimental group and the other is a control group. Mice in the experimental group are injected with 10 mg·kg of DMN for 3 continuous days in a week, and this process lasts for four weeks. Mice in the control group are injected with the same amount of normal saline diluted into a density of 10 mg/ml. During the time for inducing liver fibrosis, all mice are fed with food and water normally. Four days after injecting DMN the final time, dyeing methods of H & E and Masson's are used to examine sliced tissues of mouse bodies for confirming DMN's ability on inducing liver fibrosis of the mice.
For examining the tissues, the mice are sacrificed by blowing high-density CO2 for the mice to breathe in at first. Then, the livers are taken out to sink left lateral lobe in 4% pH 7.4 phosphate-buffered paraformaldehyde. After being paraffin-embedded for 24 hrs, 4 μm of each tissue is taken.
The tissues are examined for their morphological changes through methods of Hematoxylin and Eosin stains and then Masson's trichrome is used to examine statuses of liver fibrosis. […]

**Q.** Which results are given for CN(C)N=O [DMN, dimethylnitrosamine]?
**A.** average weight of mouse having fibrosis liver relative to normal mouse (DMN 3 continuous days a week for four weeks): 92%; Masson's trichrome staining of liver tissue (four days after final DMN injection): show blue color on fibrosis tissues
